The values below come from patent US10899738B2 (THE REGENTS OF THE UNIVERSITY OF MICHIGAN, priority 2016, dated 2021).

The structures appear in SMILES notation.

As a reminder, the IC50 is the concentration that inhibits the measured activity by half.

Sequence of menin protein (O00255 whole entry): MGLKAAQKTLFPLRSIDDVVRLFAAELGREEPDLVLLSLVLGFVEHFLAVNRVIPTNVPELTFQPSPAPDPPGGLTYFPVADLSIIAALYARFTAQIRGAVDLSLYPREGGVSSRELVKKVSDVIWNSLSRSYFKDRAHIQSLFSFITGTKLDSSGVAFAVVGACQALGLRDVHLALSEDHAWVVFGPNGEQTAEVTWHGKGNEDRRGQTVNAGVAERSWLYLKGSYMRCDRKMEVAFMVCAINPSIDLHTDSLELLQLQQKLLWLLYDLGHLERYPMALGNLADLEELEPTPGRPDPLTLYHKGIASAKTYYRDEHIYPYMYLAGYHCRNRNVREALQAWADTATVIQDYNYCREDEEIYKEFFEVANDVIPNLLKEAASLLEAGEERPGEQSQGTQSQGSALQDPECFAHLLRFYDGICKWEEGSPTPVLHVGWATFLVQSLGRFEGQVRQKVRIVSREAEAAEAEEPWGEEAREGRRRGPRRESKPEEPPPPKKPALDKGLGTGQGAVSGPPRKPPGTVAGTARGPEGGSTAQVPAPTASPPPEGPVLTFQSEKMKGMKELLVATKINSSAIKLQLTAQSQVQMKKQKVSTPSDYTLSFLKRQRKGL

The target of the experiment is menin protein (Homo sapiens (Human), UniProt O00255). Nature of the experiment: biochemical. To be noted: FP competitive binding; menin protein 4 nM, FAM-MM2 probe 2 nM; read-out: Menin Binding Affinity IC50. Type of experiment: binding. How it is done:
A fluorescence polarization (FP) competitive binding assay was used to determine the binding affinities of representative menin inhibitors. A FAM labeled fluorescent probe was designed and synthesized based on a MLL1 peptide (FAM-MM2). Equilibrium dissociation constant (Kd) value of FAM-MM2 to menin protein was determined from protein saturation experiments by monitoring the total fluorescence polarization of mixtures composed with the fluorescent probe at a fixed concentration and the protein with increasing concentrations up to full saturation. Serial dilutions of the protein were mixed with FAM-MM2 to a final volume of 200 μl in the assay buffer (PBS with 0.02% Bovine γ-Globulin and 4% DMSO. 0.01% Triton X-100 was added right before assays). Final FAM-MM2 concentration was 2 nM. Plates were incubated at room temperature for 30 minutes with gentle shaking to assure equilibrium.
The IC50, see Table 3, and Ki values of representative Compounds of the Disclosure were determined in a competitive binding experiment. Mixtures of 5 μl of the tested compounds in DMSO and 195 μl of preincubated protein/probe complex solution in the assay buffer were added into assay plates which were incubated at room temperature for 30 minutes with gentle shaking. Final concentration of the menin protein was 4 nM, and final probe concentration is 2 nM. […] FP values were measured as described above. IC50 values were determined by nonlinear regression fitting of the competition curves.
Consider `CC(=O)O[C@H]1CCC[C@@H]1C(C#N)(c1cccc(F)c1)C1CCN(CC2CN(c3ccc(S(=O)(=O)c4ccccc4)cc3)C2)CC1` (mixture of isomers) [compound 312, rac-(1S,2R)-2-(cyano(3-fluorophenyl)(1-((1-(4-(phenylsulfonyl)phenyl)azetidin-3-yl)methyl)piperidin-4-yl)methyl)cyclopentyl acetate], for which the IC50 amounted to 13 nM.

On to `N#Cc1ccc(N2CC(CN3CCC(C4(C5CCCC5)CN(C5COC5)Cc5ccccc54)CC3)C2)cc1` (centres unmarked) [compound 44, 4-(3-((4-(4-cyclopentyl-2-(oxetan-3-yl)-1,2,3,4-tetrahydroisoquinolin-4-yl)piperidin-1-yl)methyl)azetidin-1-yl)benzonitrile], for which the IC50 worked out at 910 nM.

Turning to `CSC[C@@H]1CCC[C@H]1C(C#N)(c1ccccc1)C1CCN(CC2CN(c3ccc(S(=O)(=O)c4ccncc4)cc3)C2)CC1` (mixture of isomers) [compound 260, rac-2-((1R,2R)-2-((methylthio)methyl)cyclopentyl)-2-phenyl-2-(1-((1-(4-(pyridin-4-ylsulfonyl)phenyl)azetidin-3-yl)methyl)piperidin-4-yl)acetonitrile], the IC50 was found to be 17000 nM.

Regarding `COC(=O)N[C@H]1CCC[C@@H]1C(C#N)(c1ccccc1)C1CCN(CC2CN(c3ccc(C(F)(F)F)cc3)C2)CC1` (mixture of isomers) [compound 401, methyl rac-((1S,2R)-2-(cyano(phenyl)(1-((1-(4-(trifluoromethyl)phenyl)azetidin-3-yl)methyl)piperidin-4-yl)methyl)cyclopentyl) carbamate], the concentration for half-maximal inhibition (IC50) is 89 nM.

In the case of `CC(C)C(=O)O[C@@H]1CCC[C@H]1C(C#N)(c1ccccc1)C1CCN(CC2CN(c3ccc(S(=O)(=O)c4ccncc4)cc3)C2)CC1` (mixture of isomers) [compound 194, rac-(1R,2S)-2-(cyano(phenyl)(1-((1-(4-(pyridin-4-ylsulfonyl)phenyl)azetidin-3-yl)methyl)piperidin-4-yl)methyl)cyclopentyl isobutyrate], the IC50 worked out at 165000 nM.

As for `CS(=O)(=O)c1ccc(OCCCN2CCC(C3(C4CCCC4)NCCc4ccccc43)CC2)cc1` (centres unmarked) [compound 296, 1-cyclopentyl-1-(1-(3-(4-(methylsulfonyl)phenoxy)propyl)piperidin-4-yl)-1,2,3,4-tetrahydroisoquinoline], the IC50 is 400 nM.

Take `CS(=O)(=O)c1ccc(N2CC(CN3CCC(C(C#N)(c4ccccc4)[C@H]4CCC[C@H]4S(C)(=O)=O)CC3)C2)cc1` (mixture of isomers) [compound 182, rac-2-((1R,2R)-2-(methylsulfonyl)cyclopentyl)-2-(1-((1-(4-(methylsulfonyl)phenyl)azetidin-3-yl)methyl)piperidin-4-yl)-2-phenylacetonitrile]: the half-maximal inhibitory concentration (IC50) was determined as 23700 nM.

As to `CNC(=O)O[C@@H]1CCC[C@H]1C(Cn1ccnc1C)(c1cccc(F)c1)C1CCN(CC2CN(c3ccc(Cl)cc3)C2)CC1` (mixture of isomers) [compound 414, rac-(1R,2S)-2-(1-(1-((1-(4-chlorophenyl)azetidin-3-yl)methyl)piperidin-4-yl)-1-(3-fluorophenyl)-2-(2-methyl-1H-imidazol-1-yl)ethyl)cyclopentyl methylcarbamate], the IC50 came out at 539 nM.

Take `COC(=O)N[C@H]1CCC[C@@H]1C(C#N)(c1ccccc1)C1CCN(CCC#Cc2ccc(S(=O)(=O)C(F)(F)F)cc2)CC1` (mixture of isomers) [compound 405, methyl rac-((1S,2R)-2-(cyano(phenyl)(1-(4-(4-((trifluoromethyl)sulfonyl)phenyl)but-3-yn-1-yl)piperidin-4-yl)methyl)cyclopentyl)carbamate]: the IC50 is 174 nM.

As for `N#Cc1ccc(OCCCN2CCC(C3(C4CCCC4)NCCc4ccccc43)C2)cc1` (centres unmarked) [compound 108, 4-(3-(3-(1-cyclopentyl-1,2,3,4-tetrahydroisoquinolin-1-yl)pyrrolidin-1-yl)propoxy)benzonitrile], the IC50 came out at 56500 nM.

`N#Cc1ccc(OCCCN2CCC(C(CO)(c3ccccc3)C3CCCC3)CC2)cc1` (centres unmarked) [compound 37, 4-(3-(4-(1-cyclopentyl-2-hydroxy-1-phenylethyl)piperidin-1-yl)propoxy)benzonitrile]: the IC50 was 449 nM.
